The text below walks through data of patent EP2801357A1, “Carboxylated stilbenes for activating AMPK and sirtuins” (IMD Natural Solutions GmbH, priority 2013, dated 2014).

Series [1] concerns the target T1, human sirtuin-1 (Sirt1) (Homo sapiens, UniProt Q96EB6).
T1 construct: purchased BioMol, Hamburg, Germany
T1 sequence (Q96EB6 1-747): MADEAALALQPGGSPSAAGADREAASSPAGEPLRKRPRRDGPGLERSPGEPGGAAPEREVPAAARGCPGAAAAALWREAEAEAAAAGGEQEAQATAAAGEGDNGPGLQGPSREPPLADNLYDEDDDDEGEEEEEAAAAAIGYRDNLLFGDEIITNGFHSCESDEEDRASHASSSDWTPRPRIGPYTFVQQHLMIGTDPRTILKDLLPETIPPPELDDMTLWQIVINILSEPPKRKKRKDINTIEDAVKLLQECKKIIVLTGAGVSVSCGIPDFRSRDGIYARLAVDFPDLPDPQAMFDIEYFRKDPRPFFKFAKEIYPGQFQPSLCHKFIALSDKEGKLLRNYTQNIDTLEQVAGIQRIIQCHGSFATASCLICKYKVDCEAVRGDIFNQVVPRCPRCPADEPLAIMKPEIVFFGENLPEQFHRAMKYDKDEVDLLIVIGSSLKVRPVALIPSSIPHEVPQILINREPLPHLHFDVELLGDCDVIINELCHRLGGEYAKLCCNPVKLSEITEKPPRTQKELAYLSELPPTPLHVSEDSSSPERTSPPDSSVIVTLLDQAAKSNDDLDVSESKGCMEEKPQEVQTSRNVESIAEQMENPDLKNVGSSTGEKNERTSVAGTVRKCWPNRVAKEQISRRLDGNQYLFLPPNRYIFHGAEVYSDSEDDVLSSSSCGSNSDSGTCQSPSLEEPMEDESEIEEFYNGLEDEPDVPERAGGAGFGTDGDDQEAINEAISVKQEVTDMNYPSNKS
Kind of series: SIRT1 Fluorimetric Drug Discovery Kit, Sirt1 activation. Type of series: biochemical. Conditions: for Fold increase in sirt1 activity versus control: Example 1(a), 10 µM, trans-resveratrol as control (1.0); for remaining activity at 0.3 µM / remaining activity at 1 µM / remaining activity at 3 µM / remaining activity at 10 µM / remaining activity at 30 µM: read-out: Activity [% control]. How it is done:
Compounds were tested for Sirt1 activation using the SIRT1 Fluorimetric Drug Discovery Kit (BioMol, Hamburg, Germany), Testing was carried out in duplicate following the manufacturer's instructions. Assay medium: 50mM Tris-HCl pH 8.0, 137 mM NaCl, 2.7 mM KCI, 1 mM MgCl2, 1 mg/ml bovine serum albumin (BSA). Stock solutions of the test compounds (10 mM in DMSO) were used, yielding a final concentration of 10 µM in the assay plate. Readout was obtained by measuring the fluorescence in a microtiter plate reader (excitation: 380 nm; detection: 440 nm).
The agonistic effect on Sirt1 was determined at different concentrations. For this purpose, the test compound stock solutions were diluted to yield concentrations of 0.3, 1, 3, 10 and 30 µM, respectively, in the assay, which was performed as described above. The compound of structure (I-1) was selected for this experiment.
The selectivity of the agonistic effect of the compound of formula (I-1) on different sirtuin isoforms was investigated. For this purpose, in vitro testing was performed as described in Example 1 using the respective SIRT1 Fluorimetric Drug Discovery Kit, SIRT2 Fluorimetric Drug Discovery Kit, and SIRT3 Fluorimetric Drug Discovery Kit (each from BioMol, Hamburg, Germany). […] The dose-response effect is slightly lesser on Sirt3. Table 3: Activity on Sirt1

Series [2] concerns 5'-AMP-activated protein kinase (AMPK). Kind of series: Western blot analysis of AMPK phosphorylation in NHEK.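 On P-AMPK: Chemiluminescence band density of P-AMPK measured with Multigauge software.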 Type of series: cell-based, human. Conditions: for AMPK phosphorylation [% Control] / P-AMPK / Ratio P-AMPK/ GAPDH: 48 h. In general terms: In western blotting, separated proteins are transferred to a membrane and probed.
In series [3] the test system is normal human epidermal keratinocytes (NHEK). Kind of series: MTT reduction assay, cytotoxicity in NHEK. Type of series: cell-based. Conditions: for viability: NHEK, MTT. On the procedure: Culture conditions: 37 °C, 5 % CO2. Culture medium: Keratinocyte-SFM (serum-free medium) containing human recombinant epidermal growth factor (EGF 1-53) 0.25 ng/mL and bovine pituitary extract 25 µg/mL (Gibco; Cat. No. 17005-075), supplemented with gentamycin 25 µg/mL. Assay medium: Keratinocyte-SFM (Gibco; Cat. No. 10744-019), supplemented with gentamycin 25 µg/mL.
NHEK were seeded in 24-well plates (30.000 cells / well) and cultured in culture medium for 24 h and then in assay medium for another 24 h. Medium was then removed and replaced by assay medium containing the respective test compound or reference in defined concentrations.
Cytotoxicity was determined using the 3-(4,5-dimethylthiazol-2-yl)-2,5-diphenyltetrazoliumbromid (MTT) reduction assay (sse T. Mosmann (1983) J. Immunol. Methods. 65, pp. 55-63).
In general terms: Tetrazolium assays rely on reduction of a dye to a coloured formazan, in cell work by metabolically active cells.

Series [4] addresses T2, Sirt2 (Homo sapiens, UniProt Q8IXJ6).
T2 construct: purchased BioMol, Hamburg, Germany
T2 sequence (Q8IXJ6 1-389): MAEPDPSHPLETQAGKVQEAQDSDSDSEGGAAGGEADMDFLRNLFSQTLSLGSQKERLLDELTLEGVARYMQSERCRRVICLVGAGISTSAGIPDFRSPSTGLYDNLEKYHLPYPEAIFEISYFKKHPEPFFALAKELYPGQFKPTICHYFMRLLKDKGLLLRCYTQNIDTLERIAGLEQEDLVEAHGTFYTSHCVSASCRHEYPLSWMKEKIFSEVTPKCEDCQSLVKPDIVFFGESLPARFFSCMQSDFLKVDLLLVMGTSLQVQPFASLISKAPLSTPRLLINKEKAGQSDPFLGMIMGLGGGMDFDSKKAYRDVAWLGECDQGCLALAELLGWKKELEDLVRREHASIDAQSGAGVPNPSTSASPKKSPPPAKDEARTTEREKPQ
The experiment in a line: SIRT2 Fluorimetric Drug Discovery Kit, Sirt2 activation. The class given is biochemical. Conditions: Example 2, Table 6, Sirt2.

The mark [5] stands for this setting: Experiment 1, Membrane 1, 1000 µM.
The mark [6] stands for this setting: Experiment 1, Membrane 2, 300 µM.

Structures are written as SMILES. Where two headings read alike, the source gives them in different places.

Consider `O=C(O)c1c(O)cccc1/C=C/c1ccc(O)cc1` [(I-2)], for which the “Fold increase in sirt1 activity versus control” value (“Fold increase” for short) in series [1] is 4.8.
For the compound `COC(=O)c1c(/C=C/c2ccc(OC)cc2)cccc1OC` [(I-3)], the “Fold increase” value in series [1] worked out at 1.1.
`COc1cc(/C=C/c2cccc(O)c2C(=O)O)cc(OC)c1O` [(I-4)]: the “Fold increase” value in series [1] is recorded as 2.0.
Regarding `CC(=O)c1c(O)cccc1/C=C/c1ccc(OC2OC(CO)C(O)C(O)C2O)cc1` (stereo not drawn) [(I-5)], the “Fold increase” value in series [1] is reported as 2.7.
Turning to `NC(=O)c1ncn([C@@H]2O[C@H](CO)[C@@H](O)[C@H]2O)c1N` [AICAR, 5-Amino-1-ß-D-ribofuranosyl-imidazole-4-carboxamide], in series [2] (setting [5]), the “AMPK phosphorylation [% Control]” value was found to be 482 % Control, the P-AMPK is listed as 1060 AU/mm^2 and the “Ratio P-AMPK/ GAPDH” value amounted to 2.05. In series [2] (Experiment 2, 1000 µM), the “AMPK phosphorylation [% Control]” value is 506 % Control, the P-AMPK was determined as 1377449 AU/mm^2 and the “Ratio P-AMPK/ GAPDH” value was found to be 0.572.
As for `Oc1ccc(/C=C/c2cc(O)cc(O)c2)cc1` [trans-resveratrol], the viability (usually a read-out of living cells in per cent, often relative to untreated cells) is listed as 2% in series [3] (100 µM) and 43% in series [3] (300 µM). In addition, the “concentrations with cytotoxic effects on NHEK” value in series [3] (under assay conditions) is given as at least 100 µM. Also, the “AMPK phosphorylation [% Control]” value in series [2] (setting [6]) is given as 722 % Control; in series [2] (Experiment 2, 10 µM), 81 % Control; in series [2] (Experiment 2, 30 µM), 86 % Control; in series [2] (Experiment 2, 100 µM), 117 % Control; in series [2] (Experiment 2, 200 µM), 816 % Control; in series [2] (Experiment 2, 300 µM) it was 21 % Control. Further, the P-AMPK in series [2] (setting [6]) is listed as 1616 AU/mm^2; in series [2] (Experiment 2, 10 µM), 228626 AU/mm^2; in series [2] (Experiment 2, 30 µM), 211794 AU/mm^2; in series [2] (Experiment 2, 100 µM), 327757 AU/mm^2; in series [2] (Experiment 2, 200 µM), 2361575 AU/mm^2; in series [2] (Experiment 2, 300 µM), 69290 AU/mm^2. The “dosage needed for similar enhancement of AMPK phosphorylation” value in series [2] (effect similar to compound (I-1) at 30 µM) is recorded as “at least 200 µM”. For the same compound, the remaining activity at 0.3 µM worked out at 104% in series [1] (Example 1(b), Table 2, 0.3 µM) and 121% in series [1] (Example 2, Table 3, 0.3 µM). Also, the remaining activity at 1 µM is 101% in series [1] (Example 1(b), Table 2, 1.0 µM) and 100% in series [1] (Example 2, Table 3, 1.0 µM). Besides, the remaining activity at 3 µM in series [1] (Example 1(b), Table 2, 3.0 µM) is 100%; in series [1] (Example 2, Table 3, 3.0 µM), 117%. The remaining activity at 10 µM amounted to 108% in series [1] (Example 1(b), Table 2, 10.0 µM) and 111% in series [1] (Example 2, Table 3, 10.0 µM). For the same compound, the remaining activity at 30 µM in series [1] (Example 1(b), Table 2, 30.0 µM) was 120%; in series [1] (Example 2, Table 3, 30.0 µM) it was 145%. For the same compound, the EC300 was over 30 µM in series [1] (Example 1(b), concentration that gave 3-times the basal response of the enzyme); over 30 µM in series [1] (Example 2, Table 6, Sirt1); over 30 µM in series [4].
